# Reference: paper PMC4747383, “Design of a peptidic inhibitor that targets the dimer interface of a prototypic galectin” (Oncotarget, 2015)
# “Also recorded” adds a separate entry of the source. No end group written: not given here.
# Assays:
# recombinant hGal-7 = test: Disruption of hGal-7 homodimers, native gel electrophoresis/Western blot; format: biochemical, human; conditions: for disruption of hGal-7 homodimers (in words): 0.5 μM recombinant hGal-7, 20 mM potassium phosphate pH 7.1, 1 h at 4°C
# Excerpt: To measure the ability of the peptides to disrupt the formation of hGal-7 dimers, we used mild denaturing native gel electrophoresis, a commonly used approach to visualize monomer-dimer equilibrium (Fig. 1A and Supplementary Fig. S1). […] This specificity at disrupting hGal-7 dimer formation is provided by distinct three-dimensional arrangements between otherwise very similar galectin homologues. Indeed, while all monomeric galectins reveal identical topologies, dimer formation in hGal-7 proceeds through a “back-to-back” topology of the monomers while other galectins, including hGal-1 and hGal-2, adopt a “side-by-side” structural arrangement (Fig. 1B). This structural organization provides additional means to specifically target and disrupt galectin function.
# Incubation of the recombinant B. hGal-1 and C. hGal-2 with hGal-7(129–135) was performed in the same potassium phosphate buffer. The effect of hGal-7(129–135) on the monomeric and dimeric forms of hGal-7/hGal-1/hGal-2 was assessed by Western blotting in native conditions with respective antibodies. The hGal-1/hGal-2 films were overexposed. PACAP28–38 was the control peptide used in order to ensure the specificity of hGal-7(129–135). Recombinant hGal-7 (0.5 μM) was also incubated with increasing concentrations of hGal-7(129–135) in 0.1 mM D. lactose or E. LacNac solutions. Results are representative of three independent experiments.
# Human Gal-7 cDNA was cloned into pET-22b(+) using NdeI and HindIII restriction enzymes. Human pET-Gal-1 vector was generously donated by Dr. S. Sato (McGill University, QC, Canada). The proteins were produced in E. coli BL21 (DE3) cells at 37°C. Isopropyl β-D-1-thiogalactopyranoside (IPTG) (1 mM) was added to the bacterial culture at OD600nm = 0.6–0.7 and then incubated for 4 h at 37°C to allow protein production. Bacterial pellets were resuspended in lysis buffer (0.7 mg/mL lysozyme, 10 mM Tris pH 8, 100 mM NaCl, 1 mM EDTA, 1 mM DTT and a protease inhibitor cocktail) and then incubated for 1 h at 37°C prior to centrifugation for 30 min at 15,000 × g (4°C). The supernatant was then filtered with 500 mL bottle top filter ([…]) (Corning, New York, NY, USA) and then ran through a lactose-agarose column (Sigma, St. Louis, MO, USA). The protein was eluted in 1 mL fractions with 150 mM lactose solution. Purified fractions were analyzed by SDS-PAGE. The hGal-7 was then concentrated and purified using Centrifugal filter units (Amicon Ultra-15, 10K) (EMD, Millipore, Etobicoke, ON) in 20 mM potassium phosphate at pH 7.1. All subsequent experiments with the recombinant proteins were performed in the same buffer solution unless mentioned otherwise. Brilliant Coomassie blue was purchased from BioRad (Bio-Rad Laboratories, Mississauga, ON, Canada). The recombinant protein hGal-2 was purchased from MyBiosource (San Diego, CA, USA). […]
# gaI-7 (0.5 μM) was incubated with increasing concentrations of biotin-labeled hGaI-7129–135 in 20 mM potassium phosphate buffer (pH 7.1) for 60 min at 4°C beforeWestern blot analysis in low SDS-PAGE using an anti-gaI-7 antibody. B. Similar experiments were carried out using recombinant human B. gaI-1 and C. gaI-2. Results are representative of two independent experiments.
# (also on this page, place not known: www.impactjournals.com/oncotarget/ Oncotarget, Materials 2015 Supplementary hGaI-7 129–135.)
# Jurkat T cells = test: hGal-7-induced apoptosis of Jurkat T cells, PARP-1 cleavage (Western blot); format: cell-based; conditions: hGal-7 pre-incubated with peptide, then Jurkat cells 4 h at 37°C, serum-free RPMI, Supplementary Fig. S3: peptide 200 μM
# Experimental: Apoptosis was measured by Western blot analysis of PARP-1 cleavage. The PACAP28–38 was used as a control. β-actin was used as a loading control. B. Flow cytometric analysis of Jurkat T cells with stained Annexin V (FL1) and propidium iodide-PI (FL3) following binding of recombinant hGal-7 with or without hGal-7(129–135). Cells in the lower right quadrant are representative of annexin V-positive/PI-negative, or early apoptotic cells. Cells in the upper right quadrant indicate annexin V-positive/PI-positive, or late apoptotic cells. C. Histogram showing the percentages of annexin V-positive Jurkat T cells obtained by adding the percentages of cells found in the lower and upper right quadrants. Results are representative of three independent experiments. Error bars represent standard deviation.
# For the apoptosis tests, whole-cell extracts were homogenized and resuspended in RIPA buffer (Thermo Fisher Scientific, Rockford, IL, USA) containing protease inhibitors (Roche, Laval, QC, Canada). Equal amounts of whole-cell extracts (25 μg) were separated on SDS-PAGE and transferred onto nitrocellulose membranes (Bio-Rad Laboratories). The membranes were first blocked with 5% milk [w/v] in TBS/0.5% Tween 20 [v/v] for 1 h at room temperature and subsequently blotted overnight in a solution of TBS containing 3% BSA [w/v] and 0.5% Tween 20 [v/v]. The following antibodies were used: a rabbit anti-poly-(ADP-ribose) polymerase (PARP)-1 (p25) polyclonal antibody (1:5000; Epitomics, Burlingame, CA, USA) and a mouse anti-β-actin (1:10000; Sigma-Aldrich, St. Louis, MO, USA). Secondary antibodies consisted of horseradish peroxidase-conjugated donkey anti-rabbit (GE Healthcare, Buckinghamshire, England) and sheep anti-mouse (GE Healthcare) IgG. Detection was performed using the enhanced chemiluminescence method (GE Healthcare). […]
# concentrations of recombinant human gaI-7 were pre-incubated with the hGaI-7129–135 (200 μM) prior to its addition to A. Jurkat T cells or B. PBMCs. Apoptosis wa, measured after 4 h at 37°C in serum·free conditions. […]
# [1] = 0.5 μM recombinant hGal-7, 20 mM potassium phosphate pH 7.1, pre-incubated 1 h at 4°C, native PAGE, Western blot, representative of three independent experiments
Substance,"disruption of hGal-7 homodimers in presence of LacNac (recombinant hGal-7; 0.5 μM hGal-7, 0.1 mM LacNac, representative of three independent experiments)","disruption of hGal-7 homodimers in presence of lactose (recombinant hGal-7; 0.5 μM hGal-7, 0.1 mM lactose, representative of three independent experiments)","disruption of hGal-7 homodimers (in words) (recombinant hGal-7; native PAGE, Western blot)",lowest concentration giving a consistent decrease of hGal-7 homodimers (recombinant hGal-7; [1]) [µM],saturation dose for decrease of hGal-7 homodimers (recombinant hGal-7; [1]) [µM],inhibition of hGal-7-induced apoptosis in Jurkat T cells (PARP-1 cleavage) (Jurkat T cells),inhibition of hGal-7-induced apoptosis in Jurkat T cells (PARP-1 cleavage) (Jurkat T cells; listed as hGaI-7129–135)
"H-LDSVRIP-NH2 [hGal-7(129–135), peptide corresponding to hGal-7 segment between residues 129–135]",not inhibited by the presence of lactose or LacNac,not inhibited by the presence of lactose,Disruption of the hGal-7 dimer; also recorded: effective at relatively high concentrations,10,100,inhibited the ability of hGal-7 to induce apoptosis in Jurkat T cells; also recorded: dose-dependent,decreases gaI-7-induced apoptosis
"PACAP(28–38): an inactive fragment of the human Pituitary Adenylate Cyclase-Activating Polypeptide (PACAP) (GKRYKQRVKNK-NH2; ends and bridges not checked; UniProt P18509 159-169, looked up, fragment)",,,No such effect was observed,,,No such effect was observed with the control peptide,
